In patent publication US20260125360A1, “HERBICIDAL IMIDAZOLE COMPOUNDS” (SYNGENTA CROP PROTECTION AG, priority 2022, published 2026):

Legend:
Type in all cases: in vivo
Settings in all cases: 250 g/ha, evaluated after 13 days
[1] = tested on: Amaranthus palmeri (AMAPA); assay: Post-emergence herbicide glasshouse test
Method: (§1) Seeds of a variety of test species are sown in standard soil in pots Amaranthus palmeri (AMAPA), Amaranthus retoflexus (AMARE), Echinochloa crus-galli (ECHCG), Ipomoea hederacea (IPOHE)). After cultivation for one day (pre-emergence) or after 8 days cultivation (post-emergence) under controlled conditions in a glasshouse (at 24/16° C., day/night; 14 hours light; 65% humidity), the plants are sprayed with an aqueous spray solution derived from the formulation of the technical active ingredient in acetone/water (50:50) solution containing 0.5% Tween 20 (polyoxyethelyene sorbitan monolaurate, CAS RN 9005-64-5). Compounds are applied at 250 g/ha unless otherwise stated. The test plants are then grown in a glasshouse under controlled conditions in a glasshouse (at 24/16° C., day/night; 14 hours light; 65% humidity) and watered twice daily. After 13 days for pre and post-emergence, the test is evaluated for the percentage damage caused to the plant. The biological activities are shown in the following table on a five-point scale (5=81-100%; 4=61-80%; 3=41-60%; 2=21-40%; 1=0-20%).

[2] = tested on: Amaranthus retoflexus (AMARE); assay: Post-emergence herbicide glasshouse test
Method: as §1

[3] = tested on: Echinochloa crus-galli (ECHCG); assay: Post-emergence herbicide glasshouse test
Method: as §1

[4] = tested on: Ipomoea hederacea (IPOHE); assay: Post-emergence herbicide glasshouse test
Method: as §1

[5] = tested on: Amaranthus palmeri (AMAPA); assay: Pre-emergence herbicide glasshouse test
Method: as §1

[6] = tested on: Amaranthus retoflexus (AMARE); assay: Pre-emergence herbicide glasshouse test
Method: as §1

[7] = tested on: Echinochloa crus-galli (ECHCG); assay: Pre-emergence herbicide glasshouse test
Method: as §1

[8] = tested on: Ipomoea hederacea (IPOHE); assay: Pre-emergence herbicide glasshouse test
Method: as §1

## Cc1cc(Cn2cc(C(F)(F)F)nc2-c2ccc(S(C)(=O)=O)cc2)no1 [Compound 1.177]
[1]
  percentage damage caused to the plant, AMAPA (five-point scale): 5 (5=81-100%)
[2]
  percentage damage caused to the plant, AMARE (five-point scale): 5 (5=81-100%)
[3]
  percentage damage caused to the plant, ECHCG (five-point scale): 3 (3=41-60%)
[4]
  percentage damage caused to the plant, IPOHE (five-point scale): 5 (5=81-100%)
[5]
  percentage damage caused to the plant, AMAPA (five-point scale): 5 (5=81-100%)
[6]
  percentage damage caused to the plant, AMARE (five-point scale): 5 (5=81-100%)
[7]
  percentage damage caused to the plant, ECHCG (five-point scale): 5 (5=81-100%)
[8]
  percentage damage caused to the plant, IPOHE (five-point scale): 5 (5=81-100%)

## FC(F)(F)c1cn(Cc2cnc(Cl)s2)c(-c2ccc(Cl)nc2)n1 [Compound 1.150]
[1]
  percentage damage caused to the plant, AMAPA (five-point scale): 1 (1=0-20%)
[2]
  percentage damage caused to the plant, AMARE (five-point scale): 1 (1=0-20%)
[3]
  percentage damage caused to the plant, ECHCG (five-point scale): 1 (1=0-20%)
[4]
  percentage damage caused to the plant, IPOHE (five-point scale): 1 (1=0-20%)
[5]
  percentage damage caused to the plant, AMAPA (five-point scale): 2 (2=21-40%)
[6]
  percentage damage caused to the plant, AMARE (five-point scale): 2 (2=21-40%)
[7]
  percentage damage caused to the plant, ECHCG (five-point scale): 1 (1=0-20%)
[8]
  percentage damage caused to the plant, IPOHE (five-point scale): 1 (1=0-20%)

## CCc1cnc(Cn2cc(C(F)(F)F)nc2-c2ccc(Cl)nc2)o1 [Compound 1.092]
[1]
  percentage damage caused to the plant, AMAPA (five-point scale): 4 (4=61-80%)
[2]
  percentage damage caused to the plant, AMARE (five-point scale): 4 (4=61-80%)
[3]
  percentage damage caused to the plant, ECHCG (five-point scale): 5 (5=81-100%)
[4]
  percentage damage caused to the plant, IPOHE (five-point scale): 4 (4=61-80%)
[5]
  percentage damage caused to the plant, AMAPA (five-point scale): 5 (5=81-100%)
[6]
  percentage damage caused to the plant, AMARE (five-point scale): 5 (5=81-100%)
[7]
  percentage damage caused to the plant, ECHCG (five-point scale): 5 (5=81-100%)
[8]
  percentage damage caused to the plant, IPOHE (five-point scale): 5 (5=81-100%)

## Cc1nnc(Cn2cc(C(F)F)nc2-c2cnc(Cl)c(F)c2)s1 [Compound 1.016]
[1]
  percentage damage caused to the plant, AMAPA (five-point scale): 1 (1=0-20%)
[2]
  percentage damage caused to the plant, AMARE (five-point scale): 1 (1=0-20%)
[3]
  percentage damage caused to the plant, ECHCG (five-point scale): 1 (1=0-20%)
[4]
  percentage damage caused to the plant, IPOHE (five-point scale): 1 (1=0-20%)
[5]
  percentage damage caused to the plant, AMAPA (five-point scale): 4 (4=61-80%)
[6]
  percentage damage caused to the plant, AMARE (five-point scale): 5 (5=81-100%)
[7]
  percentage damage caused to the plant, ECHCG (five-point scale): 1 (1=0-20%)
[8]
  percentage damage caused to the plant, IPOHE (five-point scale): 1 (1=0-20%)

## Cc1nonc1Cn1cc(C(F)(F)F)nc1-c1ccc(C(F)(F)F)cc1 [Compound 1.006]
[1]
  percentage damage caused to the plant, AMAPA (five-point scale): 1 (1=0-20%)
[2]
  percentage damage caused to the plant, AMARE (five-point scale): 1 (1=0-20%)
[3]
  percentage damage caused to the plant, ECHCG (five-point scale): 1 (1=0-20%)
[4]
  percentage damage caused to the plant, IPOHE (five-point scale): 1 (1=0-20%)
[5]
  percentage damage caused to the plant, AMAPA (five-point scale): 1 (1=0-20%)
[6]
  percentage damage caused to the plant, AMARE (five-point scale): 1 (1=0-20%)
[7]
  percentage damage caused to the plant, ECHCG (five-point scale): 1 (1=0-20%)
[8]
  percentage damage caused to the plant, IPOHE (five-point scale): 1 (1=0-20%)

## Cc1cc(Cn2cc(C(F)(F)F)nc2-c2ccc(F)c(F)c2)no1 [Compound 1.192]
[1]
  percentage damage caused to the plant, AMAPA (five-point scale): 5 (5=81-100%)
[2]
  percentage damage caused to the plant, AMARE (five-point scale): 5 (5=81-100%)
[3]
  percentage damage caused to the plant, ECHCG (five-point scale): 5 (5=81-100%)
[4]
  percentage damage caused to the plant, IPOHE (five-point scale): 5 (5=81-100%)
[5]
  percentage damage caused to the plant, AMAPA (five-point scale): 5 (5=81-100%)
[6]
  percentage damage caused to the plant, AMARE (five-point scale): 5 (5=81-100%)
[7]
  percentage damage caused to the plant, ECHCG (five-point scale): 5 (5=81-100%)
[8]
  percentage damage caused to the plant, IPOHE (five-point scale): 5 (5=81-100%)

## Cc1nc(Cn2cc(C(F)(F)F)nc2-c2cnc(Cl)c(F)c2)no1 [Compound 1.167]
[1]
  percentage damage caused to the plant, AMAPA (five-point scale): 5 (5=81-100%)
[2]
  percentage damage caused to the plant, AMARE (five-point scale): 5 (5=81-100%)
[3]
  percentage damage caused to the plant, ECHCG (five-point scale): 5 (5=81-100%)
[4]
  percentage damage caused to the plant, IPOHE (five-point scale): 4 (4=61-80%)
[5]
  percentage damage caused to the plant, AMAPA (five-point scale): 5 (5=81-100%)
[6]
  percentage damage caused to the plant, AMARE (five-point scale): 5 (5=81-100%)
[7]
  percentage damage caused to the plant, ECHCG (five-point scale): 5 (5=81-100%)
[8]
  percentage damage caused to the plant, IPOHE (five-point scale): 5 (5=81-100%)

## Cn1cnc(Cn2cc(C(F)(F)F)nc2-c2cnc(Cl)c(F)c2)n1 [Compound 1.018]
[1]
  percentage damage caused to the plant, AMAPA (five-point scale): 5 (5=81-100%)
[2]
  percentage damage caused to the plant, AMARE (five-point scale): 5 (5=81-100%)
[3]
  percentage damage caused to the plant, ECHCG (five-point scale): 5 (5=81-100%)
[4]
  percentage damage caused to the plant, IPOHE (five-point scale): 4 (4=61-80%)
[5]
  percentage damage caused to the plant, AMAPA (five-point scale): 5 (5=81-100%)
[6]
  percentage damage caused to the plant, AMARE (five-point scale): 5 (5=81-100%)
[7]
  percentage damage caused to the plant, ECHCG (five-point scale): 5 (5=81-100%)
[8]
  percentage damage caused to the plant, IPOHE (five-point scale): 5 (5=81-100%)
